According to EP0481320A1, “Novel cyclobutane derivatives” (NIPPON KAYAKU KABUSHIKI KAISHA, priority 1990, dated 1992):

System: herpes simplex 1 virus (HSV-1)
Assay: Plaque reduction test of antiviral activity in Vero cells
Format: cell-based
Conditions: Vero cells infected with 100-150 PFU; agar overlay with test compound; 37°C for 72 hours; plaque count
Procedure: Antiviral activity against herpes simplex 1 virus (HSV-1), which is a DNA virus, was tested by the following method. Vero cells (originating from kidney cells of African Green Monkey) spread in a monolayer onto 6-wells multiplate were infected with 100-150 PFU (Plaque Forming Units) of the virus. After a 1-hour adsorption period at 37°C, an agar medium (Eagle's minimum essential medium containing 1.5% agar) containing respective concentrations of the test compound (obtained in Example 4) was overlaid thereonto, and cultured in a 5% (V/V) carbon dioxide incubator at 37°C for 72 hours. The number of plaques formed was counted, from which the 50% inhibition concentration (IC₅₀) was determined.

`CC(O)C1C(CO)CC1n1cnc2c(=O)[nH]c(N)nc21` (single isomer, unassigned) [4-2, 9-[(1β,2α,3β)-2-(1-hydroxyethyl)-3-hydroxymethyl-1-cyclobutyl]guanine-(2)] was tested, and the “IC₅₀ (µg/ml) (HSV-1)” value was 0.163 µg/mL.

For `CC(O)C1C(CO)CC1n1cnc2c(=O)[nH]c(N)nc21` (single isomer, unassigned) [4-1, 9-[(1β,2α,3β)-2-(1-hydroxyethyl)-3-hydroxymethyl-1-cyclobutyl]guanine-(1)], the “IC₅₀ (µg/ml) (HSV-1)” value was 45.2 µg/mL.
